# Read-outs that look alike come from different tables or passages of the source.
# System: in vitro model of the blood brain barrier (brain capillary endothelial cells co-cultured with glial cells)
# Experiment: In vitro BBB model: passage of p97 tryptic digest peptides, LC-MS/MS peak areas in luminal and abluminal compartments
# Assay type: in vitro ADME, rat
# Procedure: Experiments were performed to evaluate the passage of mixtures of p97 peptide fragments across the blood-brain barrier (BBB) using a relevant and predictive BBB in vitro model (see Cecchelli et al., Adv. Drug Deliv. Rev. 36:165-178, 1999). The model utilizes brain capillary endothelial cells co-cultured with glial cells, to closely mimic the in vivo BBB (see Lundquist et al., Pharm. Res. 16:976-981, 2002).
# To provide an in vitro system for studying brain capillary functions, a process of co-culture that closely mimics the in vivo BBB was established by culturing brain capillary endothelial cells on one side of a filter and supportive glial cells on the other side. Specifically, endothelial cells were cultured in the upper compartment on the filter and glial cells in the lower compartment on the plastic of a six-wells plate (see FIGS. 7 and 8). Under these conditions, endothelial cells retain the appropriate endothelial markers (e.g., factor VIII—related antigen, non-thrombogenic surface, production of prostacyclin, angiotensin-converting enzyme activity), and also retain the relevant characteristics of the BBB (e.g., presence of tight junctions, paucity of pinocytotic vesicles, monoamine oxidase activity, γ-glutamyltranspeptidase activity, P-glycoprotein activity, specific receptors for low density lipoproteins, and transferrin).
# After removing the meninges, the brain tissue was forced gently through a nylon sieve. DMEM (Dulbecco's modified Eagle medium) supplemented with 10% (v/v) fetal calf serum (FCS, same as Fetal Bovine Serum: FBS), 2 mM glutamine, and 50 μg·ml^−1 of gentamycin was used for the dissociation of cerebral tissue and development of glial cells. […]
# The glial cells were plated at a concentration of about 1.25×10^5 cells/ml in plastic six-well plates and incubated at 37° C. with 5% CO2. The medium was changed twice a week. […] Then, sub-clones of endothelial cells frozen at passage 3 were cultured on a 60-mm-diameter gelatin-coated Petri dish. Confluent endothelial cells were trypsinized and plated on the upper side of the filters at a density of 4×10^5 cells/ml. The medium used for the co-culture was DMEM supplemented with 10% (v/v) calf serum (CS) and 10% (v/v) horse serum (HS), 2 mM glutamine, and 50 μg/ml of gentamycin, and 1 ng/ml of basic fibroblast growth factor was added every other day.
# On the day of the experiments, Ringer-HEPES (NaCl, 150 mM; KCl, 5.2 mM; CaCl2, 2.2 mM; MgCl2 6H20, 0.2 mM; NaHCO3, 6 mM; HEPES, 5 mM; glucose, 2.8 mM) was added to the lower compartment (abluminal side) of a six-well plate (3 mL per well). Filters with or without endothelial cells were washed with the Ringer-HEPES solution for 10 minutes at 37° C. to minimize traces of serum, and were then transferred to each well of the six-well plate. A volume of 1 mL Ringer-HEPES solution containing the peptide fragments in combination with Lucifer Yellow (20 μM) was placed in the upper compartment (luminal side) of the well.
# Experiments were performed in triplicate with filters containing a confluent monolayer of endothelial cells (for BBB integrity testing or evaluation of peptide fragment passage), or in triplicate with empty filters coated only with collagen (filter test). Incubations were performed on a rocking platform for 120 minutes at 37° C.
# [1] = tryptic peptides, abluminal compartment, 120 minutes, 3 micron pore size, LC-MS/MS peak area
# [2] = tryptic peptides, abluminal compartment, 120 minutes, 4 micron pore size, LC-MS/MS peak area
# [3] = tryptic peptides, luminal compartment, 120 minutes, 3 micron pore size, LC-MS/MS peak area
# [4] = tryptic peptides, luminal compartment, 120 minutes, 4 micron pore size, LC-MS/MS peak area
# [5] = tryptic peptides, abluminal/luminal peak area ratio at 120 minutes, 0.4 um insert
# [6] = tryptic peptides, abluminal/luminal peak area ratio at 120 minutes, 3.0 um insert
substance,measurement,setting,value
ADTDGGLIFR (listed as Homo sapiens) [tryptic peptide fragment of human p97],"Abl 120/Lum120 peak area ratio, 0.4 um insert",,1.95
same,"Abl 120/Lum120 peak area ratio, 3.0 um insert",,1.44
ADTDGGLIFRLLNEGQR [tryptic peptide fragment of human p97],Ablum 120: Area,[1],0.00E+00
same,Ablum 120: Area,[2],5.53E+06
same,Lum 120: Area,[3],3.69E+07
same,Lum 120: Area,[4],3.36E+07
ADVTEWR (listed as Homo sapiens) [tryptic peptide fragment of human p97],"Abl 120/Lum120 peak area ratio, 0.4 um insert",,12.76
same,"Abl 120/Lum120 peak area ratio, 3.0 um insert",,11.26
ADVTEWRQCHLAR (listed as Homo sapiens) [tryptic peptide fragment of human p97],Ablum 120: Area,,4.26E+06
same,Lum 120: Area,,0.00E+00
AQDLFGDDHNKNGFK [tryptic peptide fragment of human p97],"Abl 120/Lum120 peak area ratio, 0.4 um insert",[5],5.45
same,"Abl 120/Lum120 peak area ratio, 3.0 um insert",[6],1.68
AVPVGEKTTYR (listed as Homo sapiens) [tryptic peptide fragment of human p97],Ablum 120: Area,,0.00E+00
same,Lum 120: Area,,0.00E+00
AVSDYFGGSCVPGAGETSYSESLCR [tryptic peptide fragment of human p97],Ablum 120: Area,[1],5.49E+08
same,Ablum 120: Area,[2],7.98E+08
same,Lum 120: Area,[3],5.51E+09
same,Lum 120: Area,[4],5.03E+09
CGDMAVAFR (listed as Homo sapiens) [tryptic peptide fragment of human p97],"Abl 120/Lum120 peak area ratio, 0.4 um insert",,2.26
same,"Abl 120/Lum120 peak area ratio, 3.0 um insert",,2.06
CGNMSEAFR (listed as Homo sapiens) [tryptic peptide fragment of human p97],Ablum 120: Area,,2.53E+07
same,Lum 120: Area,,0.00E+00
CLVENAGDVAFVR (listed as Homo sapiens) [tryptic peptide fragment of human p97],Ablum 120: Area,,1.30E+08
same,Lum 120: Area,,5.49E+08
CVGNSQERYYGYR (listed as Homo sapiens) [tryptic peptide fragment of human p97],Lum 120: Area,,0.00E+00
DLLFKDSTSELVPIATQTYEAWLGHEYLHAMK [tryptic peptide fragment of human p97],Ablum 120: Area,[2],0.00E+00
same,Lum 120: Area,[4],3.76E+07
DSSHAFTLDELR (listed as Homo sapiens) [tryptic peptide fragment of human p97],"Abl 120/Lum120 peak area ratio, 0.4 um insert",,0.98
DSSHAFTLDELRGK [tryptic peptide fragment of human p97],Ablum 120: Area,[1],1.99E+07
same,Ablum 120: Area,[2],2.37E+07
same,Lum 120: Area,[3],0.00E+00
same,Lum 120: Area,[4],0.00E+00
EHGLKPVVGEVYDQEVGTSYYAVAVVRR [tryptic peptide fragment of human p97],Ablum 120: Area,[1],1.70E+07
same,Ablum 120: Area,[2],2.62E+07
same,Lum 120: Area,[3],0.00E+00
same,Lum 120: Area,[4],0.00E+00
GDSSGEGVCDKSPLER [tryptic peptide fragment of human p97],Ablum 120: Area,[1],1.93E+09
same,Ablum 120: Area,[2],2.34E+09
same,"Abl 120/Lum120 peak area ratio, 0.4 um insert",[5],4.93
same,"Abl 120/Lum120 peak area ratio, 3.0 um insert",[6],3.80
same,Lum 120: Area,[3],5.08E+08
same,Lum 120: Area,[4],4.75E+08
HSTVLENTDGK (listed as Homo sapiens) [tryptic peptide fragment of human p97],Ablum 120: Area,,0.00E+00
IQAEQVDAVTLSGEDIYTAGK [tryptic peptide fragment of human p97],Ablum 120: Area,[1],0.00E+00
same,Ablum 120: Area,[2],0.00E+00
same,Lum 120: Area,[3],3.48E+06
LCRGDSSGEGVCDK [tryptic peptide fragment of human p97],Ablum 120: Area,[1],2.64E+05
same,Ablum 120: Area,[2],5.97E+05
same,"Abl 120/Lum120 peak area ratio, 0.4 um insert",[5],2.45
same,"Abl 120/Lum120 peak area ratio, 3.0 um insert",[6],1.21
same,Lum 120: Area,[3],2.17E+05
same,Lum 120: Area,[4],2.44E+05
LKPEIQCVSAK (listed as Homo sapiens) [tryptic peptide fragment of human p97],"Abl 120/Lum120 peak area ratio, 0.4 um insert",,4.81
same,"Abl 120/Lum120 peak area ratio, 3.0 um insert",,4.37
LLNEGQR (listed as Homo sapiens) [tryptic peptide fragment of human p97],Ablum 120: Area,,0.00E+00
MFDSSNYHGQDLLFKDATVR [tryptic peptide fragment of human p97],Ablum 120: Area,[2],0.00E+00
same,Lum 120: Area,[4],0.00E+00
NYPSSLCALCVGDEQGR [tryptic peptide fragment of human p97],Ablum 120: Area,[1],7.34E+07
same,Ablum 120: Area,[2],1.09E+08
same,Lum 120: Area,[3],6.15E+08
same,Lum 120: Area,[4],5.52E+08
RSSHVTIDTLK (listed as Homo sapiens) [tryptic peptide fragment of human p97],"Abl 120/Lum120 peak area ratio, 0.4 um insert",,2.06
same,"Abl 120/Lum120 peak area ratio, 3.0 um insert",,1.23
SEDYELLCPNGAR (listed as Homo sapiens) [tryptic peptide fragment of human p97],"Abl 120/Lum120 peak area ratio, 0.4 um insert",,13.05
same,"Abl 120/Lum120 peak area ratio, 3.0 um insert",,8.38
SSHVTIDTLKGVK (listed as Homo sapiens) [tryptic peptide fragment of human p97],"Abl 120/Lum120 peak area ratio, 0.4 um insert",,2.42
same,"Abl 120/Lum120 peak area ratio, 3.0 um insert",,2.38
TVGWNVPVGYLVESGR [tryptic peptide fragment of human p97],Ablum 120: Area,[1],0.00E+00
same,Ablum 120: Area,[2],1.38E+07
same,Lum 120: Area,[3],9.38E+07
same,Lum 120: Area,[4],1.01E+08
VPAHAWVR,"Abl 120/Lum120 peak area ratio, 0.4 um insert",,3.32
same,"Abl 120/Lum120 peak area ratio, 3.0 um insert",,3.56
WCATSDPEQHK (listed as Homo sapiens) [tryptic peptide fragment of human p97],"Abl 120/Lum120 peak area ratio, 0.4 um insert",,8.92
same,"Abl 120/Lum120 peak area ratio, 3.0 um insert",,7.41
WCVLSTPEIQK (listed as Homo sapiens) [tryptic peptide fragment of human p97],Lum 120: Area,,0.00E+00
YYDYSGAFR (listed as Homo sapiens) [tryptic peptide fragment of human p97],"Abl 120/Lum120 peak area ratio, 0.4 um insert",,7.40

# — patent publication US9364567B2, “Fragments of p97 and uses thereof” (biOasis Technologies, Inc., priority 2013, dated 2016)
